# Measured values published in patent publication US20250000834A1, “COMPOSITIONS AND METHODS FOR TARGETING GPCR FOR THE PREVENTION AND TREATMENT OF PAIN” (Duke University, priority 2021, published 2025).
# What was measured:
# GPR37L1 [1] = molecular target: T1, GPR37L1 (Mus musculus, UniProt Q99JG2); assay: Lipid overlay assay on MaR1-coated PVDF membrane with mouse DRG lysates; type: binding; details: WT DRG lysate; MaR1 coated at 10 nM
# T1 construct: from tissue; host or cells: mouse dorsal root ganglia (DRG)
# T1 sequence (Q99JG2 25-481): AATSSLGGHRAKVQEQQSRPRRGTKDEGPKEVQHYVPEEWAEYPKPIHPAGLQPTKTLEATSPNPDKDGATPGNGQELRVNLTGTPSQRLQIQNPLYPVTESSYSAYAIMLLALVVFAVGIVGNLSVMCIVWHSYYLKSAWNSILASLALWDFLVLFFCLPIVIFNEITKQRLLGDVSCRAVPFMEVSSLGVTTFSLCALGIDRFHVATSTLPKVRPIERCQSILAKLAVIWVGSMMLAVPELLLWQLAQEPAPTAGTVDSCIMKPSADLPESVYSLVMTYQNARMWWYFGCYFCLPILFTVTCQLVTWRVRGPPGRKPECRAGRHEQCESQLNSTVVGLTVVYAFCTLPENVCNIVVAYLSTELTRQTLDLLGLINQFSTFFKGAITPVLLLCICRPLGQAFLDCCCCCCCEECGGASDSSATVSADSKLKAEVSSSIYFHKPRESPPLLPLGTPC
# Method: (§1) Lipids overlay assay: Lipids membrane coating and protein overlay assay were performed as previously described (S. Dowler, et al., Protein lipid overlay assay. Sci STKE 2002, p 16 (2002)). […] Compound-coated membranes were dried and blocked with 1% BSA. The coated membranes were incubated with lysates obtained from hGPR37L1-transfected HEK293 cells or mouse DRG lysate from WT or Gpr37l1 KO mice for 2 hours, followed by detection using an anti-GRP37L1 antibody (Bioss (Woburn, MA), Rabbit, 1:1000, #bs-15390R) or anti-flag antibody (Cell Signaling Technology (Danvers, MA), Rabbit, 1:1000, #14793). Blots were further incubated with an HRP-conjugated secondary anti-rabbit antibody (Jackson ImmunoResearch Laboratories (West Grove, PA), raised in donkey, 1:5000), developed in ECL solution (Pierce Biotechnology, Waltham, MA), and the signal was visualized from ChemiDoc XRS (Bio-Rad, Hercules, CA). The signal Intensity was quantified by Image J software (NIH).
# (§2) To confirm whether DRG-expressed GPR37L1 would also interact with MaR1, a lipid overlay assay was performed on MaR1-coated PVDF membrane using DRG lysates from WT or Gpr37l1 KO mice. To determine dose-dependent binding, MaR1 was coated at the concentrations of 0.01 nM, 0.1 nM, 1 nM, and 10 nM.
# GPR37L1 [2] = assay: as above; type: binding; details: Gpr37l1 KO DRG lysate
# Method: as §1, §2
# hGPR37L1 = molecular target: T2, hGPR37L1 (Homo sapiens, UniProt O60883); assay: cAMP BRET assay in HEK293 cells co-transfected with GPR37L1 and cAMP BRET cDNAs; type: cell-based; details: 10 nM
# T2 sequence (O60883 26-481): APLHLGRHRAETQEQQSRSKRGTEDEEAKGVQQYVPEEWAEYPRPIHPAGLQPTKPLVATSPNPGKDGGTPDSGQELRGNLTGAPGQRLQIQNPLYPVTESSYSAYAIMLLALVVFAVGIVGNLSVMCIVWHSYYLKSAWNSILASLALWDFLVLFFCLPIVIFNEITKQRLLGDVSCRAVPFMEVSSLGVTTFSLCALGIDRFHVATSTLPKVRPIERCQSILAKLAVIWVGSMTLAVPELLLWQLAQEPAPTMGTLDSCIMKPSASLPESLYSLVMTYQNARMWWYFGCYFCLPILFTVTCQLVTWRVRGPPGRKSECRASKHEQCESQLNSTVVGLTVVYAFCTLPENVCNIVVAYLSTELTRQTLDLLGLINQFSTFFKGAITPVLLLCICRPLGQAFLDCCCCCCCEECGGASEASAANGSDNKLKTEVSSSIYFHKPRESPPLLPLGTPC
# Method: cAMP BRET assay: To detect cAMP change after GPCR37L1 activation, we transfected a Nano-lantern cAMP plasmid (1 μg) and human GPR37L1-tango plasmid (1 μg) into HEK-293 cells. BRET activity was measured upon the addition of 100 μl/well for a final concentration of 10 μM Coelenterazine (Santa Cruz Biotechnology, Dallas, TX), 10 nM MaR1, DHA or vehicle, and 100 μM forskolin (Enzo Life Sciences (Farmingdale, NY), #BML-CN100). The luminescent activity was measured using an Infinite F200 Pro Illuminometer (Tecan Trading AG, Switzerland). The luminescent activity was normalized to basal signal levels.
# Eight different concentrations of compounds ranging from 0.1 nM to 100 nM were tested.
smiles,measurement,setting,value
"CC/C=C\C/C=C\C[C@H](O)\C=C/C=C/C=C/[C@H](O)C/C=C\CCC(=O)O [MaR1, Maresin 1]",binding spot in lipid overlay assay,GPR37L1 [1],specific binding spot was observed
same,binding spot in lipid overlay assay,GPR37L1 [2],completely absent
same,inhibition of forskolin-induced cAMP production,hGPR37L1,significantly inhibited
